In US12421243B2, “Pharmaceutically effective compounds inhibiting selectively the myosin 2 isoforms” (PRINTNET KERESKEDELMI ÉS SZOLGÁLTATÓ KFT., priority 2018, dated 2025):

Legend:
[1] = vital parameters of live anesthetized rats monitored during isometric force measurement; assay type: in vivo; settings: anesthetized rat; for Maximum change of vital parameters (%) blood flow: neck arteries
Method: The maximum isometric force induced by the stimulation was determined after intraperitoneal injection of some of the compounds of the invention. During the measurement, the following parameters of live anesthetized rats were continuously monitored: • a) heart rate • b) blood flow in the neck arteries • c) respiratory frequency • d) blood oxygen saturation ratio

[2] = molecular target: recombinant human non-muscle myosin 2 NM2B (Homo sapiens, UniProt P35580); experiment: actomyosin steady state ATPase measurement, NM2B; assay type: biochemical; settings: for IC50: concentration required for semi-maximal inhibition of ATPase; for % inhibition. complete NM2B: maximum value of inhibition of ATPase activity; for inhibition at 5 µM: read-out: % inhibition at 5 μM (or 10 μM if racemate) NM2B, 5 μM (10 μM if racemate); for inhibition at 5 µM / inhibition at 50 µM: ATPase activity; for inhibition at 50 µM: read-out: % inhibition at 50 μM (or 100 μM if racemate) NM2B, 50 μM (100 μM if racemate)
Excerpt: (§1) […]; (ii) the concentration required for semi-maximal inhibition.

[3] = system: isolated rabbit skeletal muscle myosin (skeletal); experiment: actomyosin steady state ATPase measurement, skeletal muscle myosin; assay type: biochemical; settings: for % inhibition at 5 μM (or 10 μM if racemate) Skeletal: 5 μM (10 μM if racemate); for % inhibition at 5 μM (or 10 μM if racemate) Skeletal / % inhibition at 50 μM (or 100 μM if racemate) Skeletal: ATPase activity; for % inhibition at 50 μM (or 100 μM if racemate) Skeletal: 50 μM (100 μM if racemate); for IC50: concentration required for semi-maximal inhibition of ATPase; for % inhibition. complete Skeletal: maximum value of inhibition of ATPase activity
Excerpt: as §1

[4] = molecular target: recombinant human non-muscle myosin 2 NM2C (Homo sapiens, UniProt Q7Z406); experiment: actomyosin steady state ATPase measurement, NM2C; assay type: biochemical; settings: for IC50: concentration required for semi-maximal inhibition of ATPase; for inhibition at 5 µM: read-out: % inhibition at 5 μM (or 10 μM if racemate) NM2C, 5 μM (10 μM if racemate); for inhibition at 5 µM / inhibition at 50 µM: ATPase activity; for inhibition at 50 µM: read-out: % inhibition at 50 μM (or 100 μM if racemate) NM2C, 50 μM (100 μM if racemate); for % inhibition. complete NM2C: maximum value of inhibition of ATPase activity
Excerpt: as §1

[5] = molecular target: isolated smooth muscle myosin (UniProt P10587); assay type: biochemical, chamois; settings: for % inhibition at 5 μM (or 10 μM if racemate) Smooth: 5 μM (10 μM if racemate); for % inhibition at 5 μM (or 10 μM if racemate) Smooth / % inhibition at 50 μM (or 100 μM if racemate) Smooth: ATPase activity; for % inhibition at 50 μM (or 100 μM if racemate) Smooth: 50 μM (100 μM if racemate); for % inhibition. complete Smooth: maximum value of inhibition of ATPase activity
[6] = molecular target: isolated smooth muscle myosin (UniProt P10587); assay type: biochemical, chamois; settings: concentration required for semi-maximal inhibition of ATPase
Excerpt: (ii) the concentration required for semi-maximal inhibition.

[7] = solubility in PBS in the presence of 1% DMSO; assay type: physicochemical; settings: phosphate buffered saline with 1% DMSO, aqueous buffer, kinetic from dmso stock, PBS w/o Mg, Ca
[8] = molecular target: recombinant Dictyostelium miozin (Dictyostelium) (Dictyostelium discoideum, UniProt P08799); experiment: actomyosin steady state ATPase measurement, Dictyostelium myosin; assay type: biochemical; settings: for IC50: concentration required for semi-maximal inhibition of ATPase, read-out: IC50 (μM) Dicty; for % inhibition. complete Dicty: maximum value of inhibition of ATPase activity; for inhibition at 5 µM: read-out: % inhibition at 5 μM (or 10 μM if racemate) Dicty; for inhibition at 50 µM: read-out: % inhibition at 50 μM (or 100 μM if racemate) Dicty
Excerpt: as §1

[9] = molecular target: T1, isolated porcine cardiac ventricular myocardium (cardiac) (Sus scrofa, UniProt P79293); experiment: actomyosin steady state ATPase measurement, cardiac myosin; assay type: biochemical; settings: for IC50: concentration required for semi-maximal inhibition of ATPase; for % inhibition. complete cardiac: maximum value of inhibition of ATPase activity; for inhibition at 5 µM: read-out: % inhibition at 5 μM (or 10 μM if racemate) cardiac, 5 μM (10 μM if racemate); for inhibition at 5 µM / inhibition at 50 µM: ATPase activity; for inhibition at 50 µM: read-out: % inhibition at 50 μM (or 100 μM if racemate) cardiac, 50 μM (100 μM if racemate); for Inhibition (%) cardiac: maximum inhibition, compounds in IC50 range 3-6 μM
T1 construct: isolated porcine cardiac ventricular myocardium (cardiac); from tissue; host or cells: porcine cardiac ventricle
Excerpt: as §1

[10] = molecular target: recombinant human non-muscle myosin 2 NM2A (Homo sapiens, UniProt P35579); experiment: actomyosin steady state ATPase measurement, NM2A; assay type: biochemical; settings: for IC50: concentration required for semi-maximal inhibition of ATPase; for inhibition at 5 µM: read-out: % inhibition at 5 μM (or 10 μM if racemate) NM2A, 5 μM (10 μM if racemate); for inhibition at 5 µM / inhibition at 50 µM: ATPase activity; for inhibition at 50 µM: read-out: % inhibition at 50 μM (or 100 μM if racemate) NM2A, 50 μM (100 μM if racemate); for % inhibition. complete NM2A: maximum value of inhibition of ATPase activity
Excerpt: as §1

M. quadriceps femoris = experiment: isometric force measurement of live, anesthetized rat M. quadriceps femoris due to electrical stimulation; assay type: in vivo
Method: The maximum isometric force induced by the stimulation was determined after intraperitoneal injection of some of the compounds of the invention. During the measurement, the following parameters of live anesthetized rats were continuously monitored: • a) heart rate • b) blood flow in the neck arteries • c) respiratory frequency • d) blood oxygen saturation ratio Results from live anesthetized rats are summarized in the table below.

[11] = system: myosin 1, myosin 5, and myosin 10; settings: cited from earlier work
myosin 2 = myosin 2 inhibitors, review data; cited from earlier work
platelet myosin 2 = platelet myosin 2 (Homo sapiens, UniProt P35579); settings: cited from earlier work
skeletal muscle myosin 2 = settings: cited from earlier work

Sequence of recombinant human non-muscle myosin 2 NM2B (P35580 whole entry): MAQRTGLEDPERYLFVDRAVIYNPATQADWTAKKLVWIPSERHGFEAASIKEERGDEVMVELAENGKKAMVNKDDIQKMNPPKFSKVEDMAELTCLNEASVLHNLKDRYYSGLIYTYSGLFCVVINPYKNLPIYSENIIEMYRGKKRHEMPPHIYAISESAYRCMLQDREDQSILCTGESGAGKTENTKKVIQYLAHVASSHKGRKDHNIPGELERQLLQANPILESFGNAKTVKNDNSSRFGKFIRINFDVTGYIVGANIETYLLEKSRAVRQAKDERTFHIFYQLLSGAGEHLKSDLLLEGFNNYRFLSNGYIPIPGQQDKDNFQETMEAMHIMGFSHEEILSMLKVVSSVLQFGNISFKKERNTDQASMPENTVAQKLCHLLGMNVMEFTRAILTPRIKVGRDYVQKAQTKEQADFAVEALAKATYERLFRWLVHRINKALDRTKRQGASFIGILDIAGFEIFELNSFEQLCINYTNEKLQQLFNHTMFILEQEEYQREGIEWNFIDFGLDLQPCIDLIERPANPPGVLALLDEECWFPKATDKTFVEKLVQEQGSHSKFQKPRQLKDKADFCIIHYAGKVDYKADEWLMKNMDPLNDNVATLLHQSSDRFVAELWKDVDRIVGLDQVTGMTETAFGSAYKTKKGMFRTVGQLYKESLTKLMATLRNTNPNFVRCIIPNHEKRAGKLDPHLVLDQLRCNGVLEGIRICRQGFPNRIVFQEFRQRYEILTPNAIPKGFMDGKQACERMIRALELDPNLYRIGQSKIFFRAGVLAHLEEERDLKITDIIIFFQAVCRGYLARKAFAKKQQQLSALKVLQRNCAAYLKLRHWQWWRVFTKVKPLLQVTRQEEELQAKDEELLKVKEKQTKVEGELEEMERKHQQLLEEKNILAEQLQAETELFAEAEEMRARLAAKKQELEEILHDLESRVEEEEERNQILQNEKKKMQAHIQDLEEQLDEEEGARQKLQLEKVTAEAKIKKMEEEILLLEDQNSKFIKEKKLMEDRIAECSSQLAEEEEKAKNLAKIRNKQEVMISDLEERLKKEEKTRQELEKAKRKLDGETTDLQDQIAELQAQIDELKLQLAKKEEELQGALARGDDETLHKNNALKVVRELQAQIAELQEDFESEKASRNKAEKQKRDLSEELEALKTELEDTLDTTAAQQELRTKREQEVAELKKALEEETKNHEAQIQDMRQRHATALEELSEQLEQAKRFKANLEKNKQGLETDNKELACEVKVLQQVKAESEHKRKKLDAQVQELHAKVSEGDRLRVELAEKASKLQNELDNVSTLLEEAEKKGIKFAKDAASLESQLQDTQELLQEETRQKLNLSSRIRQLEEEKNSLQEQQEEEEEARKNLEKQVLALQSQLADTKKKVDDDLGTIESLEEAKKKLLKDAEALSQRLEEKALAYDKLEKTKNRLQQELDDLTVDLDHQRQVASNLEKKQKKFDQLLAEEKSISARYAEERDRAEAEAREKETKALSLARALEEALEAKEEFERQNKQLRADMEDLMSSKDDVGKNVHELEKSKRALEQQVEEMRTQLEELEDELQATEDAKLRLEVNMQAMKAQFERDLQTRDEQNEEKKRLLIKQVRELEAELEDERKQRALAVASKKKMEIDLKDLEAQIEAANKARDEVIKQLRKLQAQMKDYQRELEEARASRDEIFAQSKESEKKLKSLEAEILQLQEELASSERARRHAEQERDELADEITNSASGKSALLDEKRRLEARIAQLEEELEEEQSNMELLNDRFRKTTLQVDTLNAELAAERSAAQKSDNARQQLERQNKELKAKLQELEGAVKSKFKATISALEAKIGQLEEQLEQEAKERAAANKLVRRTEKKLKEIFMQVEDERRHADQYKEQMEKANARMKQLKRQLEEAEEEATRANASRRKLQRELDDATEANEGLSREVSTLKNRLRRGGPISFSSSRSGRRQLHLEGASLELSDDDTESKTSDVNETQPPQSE
Sequence of isolated smooth muscle myosin (P10587 whole entry): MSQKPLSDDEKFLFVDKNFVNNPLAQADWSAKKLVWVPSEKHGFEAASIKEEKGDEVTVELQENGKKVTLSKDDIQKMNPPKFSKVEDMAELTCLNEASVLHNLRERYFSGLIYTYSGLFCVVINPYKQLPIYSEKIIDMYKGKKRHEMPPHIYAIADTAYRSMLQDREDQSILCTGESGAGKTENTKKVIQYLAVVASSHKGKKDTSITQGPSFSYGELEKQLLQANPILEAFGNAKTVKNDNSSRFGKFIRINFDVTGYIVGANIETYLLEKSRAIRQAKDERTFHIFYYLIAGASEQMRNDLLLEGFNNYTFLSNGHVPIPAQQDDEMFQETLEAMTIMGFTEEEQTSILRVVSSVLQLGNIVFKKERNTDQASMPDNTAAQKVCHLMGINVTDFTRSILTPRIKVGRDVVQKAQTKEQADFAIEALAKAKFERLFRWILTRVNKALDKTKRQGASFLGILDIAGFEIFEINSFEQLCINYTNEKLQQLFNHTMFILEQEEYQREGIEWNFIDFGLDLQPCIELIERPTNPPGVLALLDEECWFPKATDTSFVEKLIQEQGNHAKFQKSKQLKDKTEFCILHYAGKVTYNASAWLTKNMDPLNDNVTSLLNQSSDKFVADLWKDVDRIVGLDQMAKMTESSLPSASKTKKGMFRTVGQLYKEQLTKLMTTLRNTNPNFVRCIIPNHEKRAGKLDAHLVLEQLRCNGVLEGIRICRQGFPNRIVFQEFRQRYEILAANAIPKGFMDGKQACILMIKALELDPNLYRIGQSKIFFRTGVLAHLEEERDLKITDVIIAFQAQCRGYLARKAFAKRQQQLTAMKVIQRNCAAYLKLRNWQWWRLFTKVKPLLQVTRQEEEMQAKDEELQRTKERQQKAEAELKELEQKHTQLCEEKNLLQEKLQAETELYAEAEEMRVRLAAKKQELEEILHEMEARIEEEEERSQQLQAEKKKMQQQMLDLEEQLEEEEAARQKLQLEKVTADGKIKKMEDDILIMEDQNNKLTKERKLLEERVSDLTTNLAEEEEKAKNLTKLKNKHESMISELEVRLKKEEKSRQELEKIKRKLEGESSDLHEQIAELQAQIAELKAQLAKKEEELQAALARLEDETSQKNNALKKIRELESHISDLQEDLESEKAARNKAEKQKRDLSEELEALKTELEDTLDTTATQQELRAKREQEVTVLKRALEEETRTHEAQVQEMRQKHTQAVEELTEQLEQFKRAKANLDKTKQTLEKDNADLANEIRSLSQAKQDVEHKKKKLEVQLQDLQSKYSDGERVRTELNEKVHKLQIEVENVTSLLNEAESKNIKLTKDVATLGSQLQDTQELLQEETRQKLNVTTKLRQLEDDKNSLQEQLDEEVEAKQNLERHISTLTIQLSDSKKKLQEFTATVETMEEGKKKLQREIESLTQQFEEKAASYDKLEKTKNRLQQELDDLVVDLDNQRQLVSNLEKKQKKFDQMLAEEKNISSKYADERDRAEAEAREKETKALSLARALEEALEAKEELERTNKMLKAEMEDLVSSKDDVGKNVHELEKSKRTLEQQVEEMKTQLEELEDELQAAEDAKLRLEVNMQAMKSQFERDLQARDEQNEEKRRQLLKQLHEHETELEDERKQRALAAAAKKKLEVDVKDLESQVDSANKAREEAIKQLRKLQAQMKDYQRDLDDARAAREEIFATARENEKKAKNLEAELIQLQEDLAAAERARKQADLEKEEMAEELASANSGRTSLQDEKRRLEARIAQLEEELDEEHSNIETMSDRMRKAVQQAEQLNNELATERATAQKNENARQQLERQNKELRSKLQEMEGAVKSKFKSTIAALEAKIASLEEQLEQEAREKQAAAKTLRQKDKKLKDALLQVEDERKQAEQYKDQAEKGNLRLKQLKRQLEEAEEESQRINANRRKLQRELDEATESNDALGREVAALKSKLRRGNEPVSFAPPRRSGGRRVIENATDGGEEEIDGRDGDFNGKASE

O=C1c2ccncc2N=C2N(c3ccccc3)CCC12O (stereo not shown) [Compound 174, 3a-Hydroxy-1-phenyl-1H,2H,3H,3aH,4H-pyrrolo[2,3-b]1,7-naphthyridin-4-one]
Maximum change of vital parameters (%) heart rate ([1]; 6 mg i.p.): 3%
Maximum change of vital parameters (%) oxygen saturation ([1]; 6 mg i.p.): −19%
Maximum change of vital parameters (%) respiratory frequency ([1]; 6 mg i.p.): −20%
Maximum change of vital parameters (%) blood flow ([1]; 6 mg i.p.): 4%
IC50 [2]: 15 µM
% inhibition. complete NM2B [2]: 12%
inhibition at 5 µM [2]: 2%
inhibition at 50 µM [2]: 9%
% inhibition at 5 μM (or 10 μM if racemate) Skeletal [3]: 25%
% inhibition at 50 μM (or 100 μM if racemate) Skeletal [3]: 77%
IC50 [3]: 17 µM
% inhibition. complete Skeletal [3]: 100%
IC50 [4]: 2 µM
inhibition at 5 µM [4]: 7%
inhibition at 50 µM [4]: 9%
% inhibition at 5 μM (or 10 μM if racemate) Smooth [5]: 1%
% inhibition at 50 μM (or 100 μM if racemate) Smooth [5]: 6%
% inhibition. complete Smooth [5]: 51%
IC50 [6]: > 100 µM
solubility [7]: ≥ 1000 µM
IC50 [8]: 10 µM
Inhibition (%) Dicty ([8]; maximum inhibition, compounds in IC50 range 1-11 μM): 20%
% inhibition. complete Dicty [8]: 20%
inhibition at 5 µM [8]: 7%
inhibition at 50 µM [8]: 17%
IC50 [9]: > 100 µM
% inhibition. complete cardiac [9]: 100%
inhibition at 5 µM [9]: 2%
inhibition at 50 µM [9]: 15%
IC50 [10]: 1 µM
inhibition at 5 µM [10]: 12%
inhibition at 50 µM [10]: 9%
Maximum change in isometric force at rear leg (%) (M. quadriceps femoris; 6 mg i.p.): 25%

O=C1c2ccsc2N=C2N(c3ccccc3)CCC12O (stereo not shown) [Compound 180, 9-Hydroxy-12-phenyl-4-thia-2,12-diazatricyclo[7.3.0.0^3,7]dodeca-1,3(7),5-trien-8-one]
IC50 [2]: 18.7 µM
% inhibition. complete NM2B [2]: 60%
inhibition at 5 µM [2]: 14%
inhibition at 50 µM [2]: 44%
% inhibition at 5 μM (or 10 μM if racemate) Skeletal [3]: 87%
% inhibition at 50 μM (or 100 μM if racemate) Skeletal [3]: 96%
IC50 [3]: 0.81 µM
% inhibition. complete Skeletal [3]: 99%
IC50 [4]: 9.3 µM
% inhibition. complete NM2C [4]: 60%
inhibition at 5 µM [4]: 20%
inhibition at 50 µM [4]: 55%
% inhibition at 5 μM (or 10 μM if racemate) Smooth [5]: 16%
% inhibition at 50 μM (or 100 μM if racemate) Smooth [5]: 38%
% inhibition. complete Smooth [5]: 58%
IC50 [6]: 14 µM
solubility [7]: 2400 µM
IC50 [8]: 13.1 µM
% inhibition. complete Dicty [8]: 85%
inhibition at 5 µM [8]: 22%
inhibition at 50 µM [8]: 67%
IC50 [9]: 5.1 µM
Inhibition (%) cardiac [9]: 89%
% inhibition. complete cardiac [9]: 89%
inhibition at 5 µM [9]: 42%
inhibition at 50 µM [9]: 81%
IC50 [10]: 9.8 µM
Inhibition (%) NM2A ([10]; maximum inhibition, compounds in IC50 range 5-10 μM): 48%
% inhibition. complete NM2A [10]: 48%
inhibition at 5 µM [10]: 15%
inhibition at 50 µM [10]: 44%

Cc1ccc2c(c1)C(=O)[C@]1(O)CCN(c3ccccc3)C1=N2 [blebbistatin]
inhibition of myosin 1, myosin 5, and myosin 10 [11]: does not inhibit

Cc1cc2c(s1)N=C1N(c3ccc(N4CCOCC4)cc3)CCC1(O)C2=O (stereo not shown) [Compound 220, 9-Hydroxy-5-methyl-12-[4-(morpholin-4-yl)phenyl]-4-thia-2,12-diazatricyclo[7.3.0.0^3,7]dodeca-1,3(7),5-trien-8-one]
Maximum change of vital parameters (%) heart rate ([1]; 1 mg i.p.): 1%
Maximum change of vital parameters (%) oxygen saturation ([1]; 1 mg i.p.): −1%
Maximum change of vital parameters (%) respiratory frequency ([1]; 1 mg i.p.): −13%
Maximum change of vital parameters (%) blood flow ([1]; 1 mg i.p.): 8%
Maximum change of vital parameters (%) heart rate ([1]; 3 mg i.p.): 8%
Maximum change of vital parameters (%) oxygen saturation ([1]; 3 mg i.p.): −17%
Maximum change of vital parameters (%) respiratory frequency ([1]; 3 mg i.p.): −21%
Maximum change of vital parameters (%) blood flow ([1]; 3 mg i.p.): 19%
Maximum change of vital parameters (%) heart rate ([1]; 6 mg i.p.): 22%
Maximum change of vital parameters (%) oxygen saturation ([1]; 6 mg i.p.): −28%
Maximum change of vital parameters (%) respiratory frequency ([1]; 6 mg i.p.): −22%
Maximum change of vital parameters (%) blood flow ([1]; 6 mg i.p.): −1%
Maximum change of vital parameters (%) heart rate ([1]; 10 mg i.p.): 3%
Maximum change of vital parameters (%) oxygen saturation ([1]; 10 mg i.p.): −41%
Maximum change of vital parameters (%) respiratory frequency ([1]; 10 mg i.p.): −30%
Maximum change of vital parameters (%) blood flow ([1]; 10 mg i.p.): −3%
% inhibition at 5 μM (or 10 μM if racemate) Skeletal [3]: 86%
% inhibition at 50 μM (or 100 μM if racemate) Skeletal [3]: 94%
IC50 [3]: 0.49 µM
% inhibition. complete Skeletal [3]: 96%
IC50 [4]: 1.8 µM
Inhibition (%) NM2C ([4]; maximum inhibition, compounds in IC50 range 1-5 μM): 24%
% inhibition. complete NM2C [4]: 24%
inhibition at 5 µM [4]: 19%
inhibition at 50 µM [4]: 21%
% inhibition at 5 μM (or 10 μM if racemate) Smooth [5]: 34%
% inhibition at 50 μM (or 100 μM if racemate) Smooth [5]: 54%
% inhibition. complete Smooth [5]: 51%
IC50 [6]: 2.3 µM
solubility [7]: 710 µM
IC50 [8]: > 100 µM
inhibition at 5 µM [8]: 0%
inhibition at 50 µM [8]: 0%
IC50 [9]: 5.6 µM
Inhibition (%) cardiac [9]: 39%
% inhibition. complete cardiac [9]: 39%
inhibition at 5 µM [9]: 17%
inhibition at 50 µM [9]: 37%
IC50 [10]: 0.93 µM
% inhibition. complete NM2A [10]: 20%
inhibition at 5 µM [10]: 16%
inhibition at 50 µM [10]: 22%
Maximum change in isometric force at rear leg (%) (M. quadriceps femoris; 1 mg i.p.): 19%
Maximum change in isometric force at rear leg (%) (M. quadriceps femoris; 3 mg i.p.): 23%
Maximum change in isometric force at rear leg (%) (M. quadriceps femoris; 6 mg i.p.): 42%

Cc1ccc(S(=O)(=O)NCc2ccccc2)cc1 [BTS, N-Benzyl-p-toluenesulfonamide]
Binding strength (myosin 2): ~5 µM
inhibition of platelet myosin 2 (platelet myosin 2): does not inhibit
inhibits fast muscle skeletal myosin-2 times more stronger than slow skeletal muscle myosin-2, myocardial myosin-2 or non-muscle myosin 2 (skeletal muscle myosin 2; selectivity among myosin 2 isoforms): 100 times

CC(=O)/C(C)=N/O [BDM, 2,3-butanedione monoxime]
Binding strength (myosin 2): ~5000 µM
IC50 (skeletal muscle myosin 2; skeletal muscle myosin 2, binds weakly): ~5000 µM
